The values below come from PMC7085114 (Biochemistry, 2020).

Entries after “also recorded” stand apart in the source; their conditions may differ. Where two headings read alike, the source gives them in different places.

In test [1] the target is T1, SARM1 TIR domain (Homo sapiens, UniProt Q6SZW1).
T1 sequence (Q6SZW1 561-724): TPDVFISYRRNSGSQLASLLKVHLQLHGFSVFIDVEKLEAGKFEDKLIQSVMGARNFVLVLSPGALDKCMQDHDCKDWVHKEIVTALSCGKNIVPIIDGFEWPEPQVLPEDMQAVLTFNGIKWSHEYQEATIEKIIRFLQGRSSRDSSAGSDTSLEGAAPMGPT
The experiment in a line: Continuous fluorescent ENAD hydrolysis assay, SARM1 TIR domain in lysate. Conditions: for Inhibition of SARM1 (in words): 0 – 1 mM analog, ENAD 50 μM. The test is classed as biochemical.

Test [2] has as its target T2, SARM1 SAM^1–2TIR domains (Homo sapiens, UniProt Q6SZW1).
T2 sequence (Q6SZW1 412-724): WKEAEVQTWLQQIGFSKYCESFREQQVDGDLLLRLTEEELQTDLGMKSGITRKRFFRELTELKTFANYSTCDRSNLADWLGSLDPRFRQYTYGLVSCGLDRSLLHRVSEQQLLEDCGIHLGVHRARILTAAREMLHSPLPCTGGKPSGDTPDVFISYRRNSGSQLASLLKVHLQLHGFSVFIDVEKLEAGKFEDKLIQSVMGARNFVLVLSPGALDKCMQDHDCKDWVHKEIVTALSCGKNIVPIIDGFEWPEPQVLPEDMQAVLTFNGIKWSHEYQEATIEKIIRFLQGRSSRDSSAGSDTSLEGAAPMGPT
Particulars: SAM TIR construct, substrate ENAD.

Test [3] concerns the target T3, full length SARM1 (Homo sapiens, UniProt Q6SZW1).
T3 sequence (Q6SZW1 28-724): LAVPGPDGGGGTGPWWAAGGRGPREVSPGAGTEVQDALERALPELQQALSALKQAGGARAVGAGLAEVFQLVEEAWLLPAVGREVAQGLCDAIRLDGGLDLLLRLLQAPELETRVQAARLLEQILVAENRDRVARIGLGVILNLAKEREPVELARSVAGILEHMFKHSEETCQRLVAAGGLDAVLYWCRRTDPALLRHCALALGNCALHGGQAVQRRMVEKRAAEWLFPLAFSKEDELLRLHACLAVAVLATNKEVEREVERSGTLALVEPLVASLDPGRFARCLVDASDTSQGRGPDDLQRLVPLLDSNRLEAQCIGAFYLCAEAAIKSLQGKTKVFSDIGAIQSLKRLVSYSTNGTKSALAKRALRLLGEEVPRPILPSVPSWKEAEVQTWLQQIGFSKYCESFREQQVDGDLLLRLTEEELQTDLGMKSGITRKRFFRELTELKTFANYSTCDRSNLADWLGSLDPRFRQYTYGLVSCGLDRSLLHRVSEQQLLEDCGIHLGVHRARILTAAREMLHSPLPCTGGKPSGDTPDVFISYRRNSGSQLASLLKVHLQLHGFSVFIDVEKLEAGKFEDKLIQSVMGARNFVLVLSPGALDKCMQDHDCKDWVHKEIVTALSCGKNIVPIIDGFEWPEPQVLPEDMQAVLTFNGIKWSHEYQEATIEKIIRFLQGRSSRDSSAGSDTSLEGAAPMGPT
Particulars: Full length SARM1, substrate ENAD.

The target of test [4] is T1, SARM1 TIR domain. The experiment in a line: Luminescent NNMT-coupled NAD+ hydrolysis assay. The test is classed as biochemical. Conditions: TIR domain on affinity beads, substrate NAD^+.
Test [5] deals with Sir2. Conditions: ref [24]–[27]; cited from earlier work.
Test [6] deals with CD38. Particulars: cited from earlier work.
Setting [7] is: 300 nM SARM1, ENAD 0 – 400 μM varied.
Setting [8] is: 2 mM metal or EDTA, 300 nM SARM1, 200 μM ENAD.

In the case of `O[C@@H](CS)[C@@H](O)CS` (racemic) [DTT, dithiothreitrol], in test [1] (0 – 2 mM reducing agent, 100 μM ENAD), the “Effect of reducing agents on SARM1 activity” value is “Neither DTT nor TCEP altered SARM1 activity”. The IC50 is the concentration needed to halve the response being measured. One may read the Ki as a measure of affinity in units of concentration, obtained from inhibition or displacement. With `NC(=O)c1cnccc1Cl` [4–CN, 4–chloronicotinamide], in test [1], the IC50 is 640 ± 40 µM, the Ki came out at 700 ± 30 µM and the “Inhibition of SARM1 (in words)” value is “inhibit SARM1”. Further, in test [1] (setting [7]), the “Pattern (mechanism) of inhibition” value was “noncompetitive”. Besides, the “Pattern (mechanism) of inhibition” value in test [1] (300 nM SARM1, ENAD 0 – 400 μM varied, listed as 4-Chloronicotinamide) is “noncompetitively”.

With `NC(=O)c1ccc(Cl)nc1` [6-CN, 6–chloronicotinamide], the “Inhibition of SARM1 (in words)” value in test [1] is given as “inhibit SARM1”. Take `Nc1ncnc2c1ncn2[C@@H]1O[C@H](COP(=O)(O)OP(=O)(O)OC[C@H]2OC(O)[C@H](O)[C@@H]2O)[C@@H](O)[C@H]1O` (stereo partly shown) [ADPR, ADP Ribose]: in test [1] (setting [7]), the Ki was found to be 90 ± 10 µM and the “Pattern (mechanism) of inhibition” value is on record as “competitive; also recorded: competitively”. With `[Ca+2].[Cl-].[Cl-]` [CaCl2], the “Effect of divalent metal ions and EDTA on SARM1 catalysis” value (“Effect of divalent metal ions and EDTA” for short) in test [1] (setting [8]) is “only Ni^2+ and Zn^2+ inhibit SARM1”. With `[Cl][Cd][Cl]` [CdCl2], in test [1], the “Effect of divalent metal ions and EDTA” value was “only Ni^2+ and Zn^2+ inhibit SARM1”. With `[Cl-].[Cl-].[Co+2]` [CoCl2], the “Effect of divalent metal ions and EDTA” value in test [1] is “only Ni^2+ and Zn^2+ inhibit SARM1”. For `[Cl][Cu][Cl]` [CuCl2], the “Effect of divalent metal ions and EDTA” value in test [1] (setting [8]) was “only Ni^2+ and Zn^2+ inhibit SARM1”.

In the case of `O=C(O)CN(CCN(CC(=O)O)CC(=O)O)CC(=O)O` [EDTA, ethylenediaminetetraacetic acid], the “Effect of divalent metal ions and EDTA” value in test [1] (setting [8]) is “lack of an effect”. As a reminder, the Km is the concentration of substrate that gives half-maximal velocity. The kcat is the maximal rate divided by the concentration of active sites. For `NC(=O)c1ccc[n+]([C@@H]2O[C@H](COP(=O)([O-])OP(=O)(O)OC[C@H]3O[C@@H](n4cnc5c4ncn4ccnc54)[C@H](O)[C@@H]3O)[C@@H](O)[C@H]2O)c1` [ENAD, Nicotinamide 1, N^6–ethenoadenine dinucleotide], the figures for the Km in test [1], in test [2] and in test [3] were 35 ± 10 µM, 130 ± 20 µM and 70 ± 20 µM, respectively. The kcat in test [1] (TIR domain, substrate ENAD, fluorescent assay) was 0.06 ± 0.03 s⁻¹; in test [2], 0.12 ± 0.02 s⁻¹; in test [3] it was 0.40 ± 0.04 s⁻¹. As to `[Cl-].[Cl-].[Mg+2]` [MgCl2], in test [1] (setting [8]), the “Effect of divalent metal ions and EDTA” value is “only Ni^2+ and Zn^2+ inhibit SARM1”. Same read-out and setting: then `[Cl][Mn][Cl]` [MnCl2], with “only Ni^2+ and Zn^2+ inhibit SARM1”. In the case of `NC(=O)c1ccc[n+]([C@@H]2O[C@H](COP(=O)([O-])OP(=O)(O)OC[C@H]3O[C@@H](n4cnc5c(N)ncnc54)[C@H](O)[C@@H]3O)[C@@H](O)[C@H]2O)c1` [NAD^+], in test [4], the Km was found to be 28 ± 6 µM and the kcat is 0.21 ± 0.03 s⁻¹.

As for `[Cl][Ni][Cl]` [Ni^2+, NiCl2], the “Effect of divalent metal ions and EDTA” value in test [1] was “inhibit SARM1”. In addition, the concentration for half-maximal inhibition (IC50) in test [1] (read-out: IC50 of metal ion inhibition of SARM1) was determined as 600 ± 100 µM. On to `O=C(O)CCP(CCC(=O)O)CCC(=O)O` [TCEP, tris(2–carboxyethyl)phosphine], for which the “Effect of reducing agents on SARM1 activity” value in test [1] is given as “Neither DTT nor TCEP altered SARM1 activity”.

As for `[Cl-].[Cl-].[Zn+2]` [Zn^2+, ZnCl2], the “Effect of divalent metal ions and EDTA” value in test [1] (setting [8]) is “inhibit SARM1”. For the compound `NC(=O)c1cccnc1` [nicotinamide], the Pattern of inhibition entry is listed as “noncompetitive” in test [5] and “mixed inhibition” in test [6] (ref [24]–[27]). Moreover, in test [6] (ref [23]), the Ki is 7100 µM.
